Data published in ChEMBL document CHEMBL3885881, “DrugMatrix”.

Species on record: Rattus norvegicus
Assay: DrugMatrix - Regimen: Daily Repeat
Format: toxicity, organism-based, Sprague-Dawley
Set-up: regimen Daily Repeat, gender Male, age 6-8 weeks
Details: in vivo, po, route oral GAVAGE, vehicle 100 % WATER; for ABSOLUTE BASOPHIL / ABSOLUTE EOSINOPHIL / ABSOLUTE LYMPHOCYTE / ABSOLUTE MONOCYTE / ABSOLUTE SEGMENTED NEUTROPHIL / BASOPHIL / EOSINOPHIL / ERYTHROCYTE COUNT / HEMATOCRIT / HEMOGLOBIN / LEUKOCYTE COUNT / LYMPHOCYTE / MEAN CORPUSCULAR HEMOGLOBIN / MEAN CORPUSCULAR HEMOGLOBIN CONCENTRATION / MEAN CORPUSCULAR VOLUME / MONOCYTE / NEUTROPHIL / NUCLEATED RED BLOOD CELLS / PLATELET COUNT: tissue Blood; for ALANINE AMINOTRANSFERASE / ALBUMIN / ALKALINE PHOSPHATASE / ASPARTATE AMINOTRANSFERASE / BLOOD UREA NITROGEN / CARBON DIOXIDE / CHLORIDE / CHOLESTEROL / CREATINE PHOSPHOKINASE / CREATININE / GLUCOSE / LACTATE DEHYDROGENASE / LIPASE / PHOSPHORUS / POTASSIUM / SODIUM / TOTAL BILIRUBIN / TOTAL PROTEIN / URIC ACID: tissue Plasma
[1] = 0 mg/kg, 72 h, dose level Control, time 3 day
[2] = 0 mg/kg, 120 h, dose level Control, time 5 day
[3] = 20 mg/kg, 72 h, dose level Low, time 3 day

C=CCC1(C(C)CCC)C(=O)NC(=O)NC1=O (centres undefined) [SECOBARBITAL]
ABSOLUTE BASOPHIL [1]: 0 CELLS/uL
ABSOLUTE EOSINOPHIL [1]: 32.5 CELLS/uL
ABSOLUTE LYMPHOCYTE [1]: 9305.83 CELLS/uL
ABSOLUTE MONOCYTE [1]: 43.83 CELLS/uL
ABSOLUTE SEGMENTED NEUTROPHIL [1]: 817.83 CELLS/uL
BASOPHIL [1]: 0%
EOSINOPHIL [1]: 0.33%
ERYTHROCYTE COUNT [1]: 5.38 x10E6/uL
HEMATOCRIT [1]: 33.63%
HEMOGLOBIN [1]: 13.17 G/DL
LEUKOCYTE COUNT [1]: 10.2 x10E3/uL
LYMPHOCYTE [1]: 91.17%
MEAN CORPUSCULAR HEMOGLOBIN [1]: 24.5 pg
MEAN CORPUSCULAR HEMOGLOBIN CONCENTRATION [1]: 39.13 G/DL
MEAN CORPUSCULAR VOLUME [1]: 62.53 fL
MONOCYTE [1]: 0.5%
NEUTROPHIL [1]: 8%
NUCLEATED RED BLOOD CELLS [1]: 0.17 /100WBC
PLATELET COUNT [1]: 858 x10E3/uL
ALANINE AMINOTRANSFERASE [1]: 55.67 u/L
ALBUMIN [1]: 4.07 G/DL
ALKALINE PHOSPHATASE [1]: 337 u/L
ASPARTATE AMINOTRANSFERASE [1]: 84 u/L
BLOOD UREA NITROGEN [1]: 13.17 mg/dL
CARBON DIOXIDE [1]: 34.17 mmol/L
CHLORIDE [1]: 99.33 MEQ/L
CHOLESTEROL [1]: 78.83 mg/dL
CREATINE PHOSPHOKINASE [1]: 576.83 u/L
CREATININE [1]: 0.17 mg/dL
GLUCOSE [1]: 152.67 mg/dL
LACTATE DEHYDROGENASE [1]: 147.83 u/L
LIPASE [1]: 9.5 u/L
PHOSPHORUS [1]: 10.78 mg/dL
POTASSIUM [1]: 6.34 MEQ/L
SODIUM [1]: 144.12 MEQ/L
TOTAL BILIRUBIN [1]: 0.18 mg/dL
TOTAL PROTEIN [1]: 6.08 G/DL
URIC ACID [1]: 0.65 mg/dL
ABSOLUTE BASOPHIL [2]: 0 CELLS/uL
ABSOLUTE EOSINOPHIL [2]: 31.17 CELLS/uL
ABSOLUTE LYMPHOCYTE [2]: 7918.33 CELLS/uL
ABSOLUTE MONOCYTE [2]: 58.33 CELLS/uL
ABSOLUTE SEGMENTED NEUTROPHIL [2]: 725.5 CELLS/uL
BASOPHIL [2]: 0%
EOSINOPHIL [2]: 0.33%
ERYTHROCYTE COUNT [2]: 5.32 x10E6/uL
HEMATOCRIT [2]: 33.53%
HEMOGLOBIN [2]: 13.17 G/DL
LEUKOCYTE COUNT [2]: 8.73 x10E3/uL
LYMPHOCYTE [2]: 90.33%
MEAN CORPUSCULAR HEMOGLOBIN [2]: 24.82 pg
MEAN CORPUSCULAR HEMOGLOBIN CONCENTRATION [2]: 39.33 G/DL
MEAN CORPUSCULAR VOLUME [2]: 63.12 fL
MONOCYTE [2]: 0.67%
NEUTROPHIL [2]: 8.67%
NUCLEATED RED BLOOD CELLS [2]: 0 /100WBC
PLATELET COUNT [2]: 1144.83 x10E3/uL
ALANINE AMINOTRANSFERASE [2]: 60.5 u/L
ALBUMIN [2]: 3.97 G/DL
ALKALINE PHOSPHATASE [2]: 343.17 u/L
ASPARTATE AMINOTRANSFERASE [2]: 80.83 u/L
BLOOD UREA NITROGEN [2]: 15 mg/dL
CARBON DIOXIDE [2]: 31 mmol/L
CHLORIDE [2]: 99.75 MEQ/L
CHOLESTEROL [2]: 71.5 mg/dL
CREATINE PHOSPHOKINASE [2]: 237.17 u/L
CREATININE [2]: 0.17 mg/dL
GLUCOSE [2]: 137 mg/dL
LACTATE DEHYDROGENASE [2]: 146.17 u/L
LIPASE [2]: 11.5 u/L
PHOSPHORUS [2]: 10.13 mg/dL
POTASSIUM [2]: 6 MEQ/L
SODIUM [2]: 145 MEQ/L
TOTAL BILIRUBIN [2]: 0.13 mg/dL
TOTAL PROTEIN [2]: 5.82 G/DL
URIC ACID [2]: 0.62 mg/dL
ABSOLUTE BASOPHIL [3]: 0 CELLS/uL
ABSOLUTE EOSINOPHIL [3]: 51.33 CELLS/uL
ABSOLUTE LYMPHOCYTE [3]: 9158 CELLS/uL
ABSOLUTE MONOCYTE [3]: 51.33 CELLS/uL
ABSOLUTE SEGMENTED NEUTROPHIL [3]: 572.67 CELLS/uL
BASOPHIL [3]: 0%
EOSINOPHIL [3]: 0.67%
ERYTHROCYTE COUNT [3]: 5.3 x10E6/uL
HEMATOCRIT [3]: 33.23%
HEMOGLOBIN [3]: 12.87 G/DL
LEUKOCYTE COUNT [3]: 9.83 x10E3/uL
LYMPHOCYTE [3]: 93%
MEAN CORPUSCULAR HEMOGLOBIN [3]: 24.27 pg
MEAN CORPUSCULAR HEMOGLOBIN CONCENTRATION [3]: 38.7 G/DL
MEAN CORPUSCULAR VOLUME [3]: 62.83 fL
MONOCYTE [3]: 0.67%
NEUTROPHIL [3]: 5.67%
NUCLEATED RED BLOOD CELLS [3]: 0 /100WBC
PLATELET COUNT [3]: 930.33 x10E3/uL
ALANINE AMINOTRANSFERASE [3]: 63 u/L
ALBUMIN [3]: 4.2 G/DL
ALKALINE PHOSPHATASE [3]: 397.67 u/L
ASPARTATE AMINOTRANSFERASE [3]: 98.33 u/L
BLOOD UREA NITROGEN [3]: 13.33 mg/dL
CARBON DIOXIDE [3]: 35 mmol/L
CHLORIDE [3]: 99 MEQ/L
CHOLESTEROL [3]: 83.33 mg/dL
CREATINE PHOSPHOKINASE [3]: 496 u/L
CREATININE [3]: 0.16 mg/dL
GLUCOSE [3]: 140.67 mg/dL
LACTATE DEHYDROGENASE [3]: 160.33 u/L
LIPASE [3]: 9.67 u/L
PHOSPHORUS [3]: 11.03 mg/dL
POTASSIUM [3]: 6.51 MEQ/L
SODIUM [3]: 143.6 MEQ/L
TOTAL BILIRUBIN [3]: 0.2 mg/dL
TOTAL PROTEIN [3]: 6.1 G/DL
URIC ACID [3]: 0.83 mg/dL
